Measured values reported in PMC7093416, “Selective USP7 inhibition elicits cancer cell killing through a p53-dependent mechanism” (Scientific Reports, 2020).
“And” between values parts separate entries of the source, which are not always exact repeats. Equal entries are not always repeated.

System: panel of 484 cancer cell lines
Assay: PRISM cancer cell line profiling, 5 days
Type: cell-based
Parameters: Viability: scale not given here; AUC: unit not given beside the values
Description: Cancer cell line profiling was performed using the Broad’s PRISM platform. Cell treatment and data analysis were performed as described in Yu et al[42]. Raw Luminex signal was converted to AUC values for each cell line as described. The resulting AUC profile for each compound was modeled against DepMap using the limma package in R[71]. Because hotspot mutation analysis was performed against DepMap, TP53 annotations in Fig. 6c,d are directly from DepMap.

[1] = CAL12T_LUNG, pert_dose 6.10E-04
[2] = CAL27_UPPER_AERODIGESTIVE_TRACT, pert_dose 6.10E-04
[3] = CAL29_URINARY_TRACT, pert_dose 6.10E-04

For `COc1ccc(C2=N[C@@H](c3ccc(Cl)cc3)[C@@H](c3ccc(Cl)cc3)N2C(=O)N2CCNC(=O)C2)c(OC(C)C)c1` [Nutlin-3A], the Viability (CAKI1_KIDNEY, pert_dose 6.10E-04) was 1.281, the AUC (CAL12T_LUNG) was 1.284 and the “MFI CAL12T_LUNG” value [1] was 11558 and 13284 and 9249.5 and 12951.5 and 13183. For the same compound, the Viability [1] was 1.338, the AUC (CAL27_UPPER_AERODIGESTIVE_TRACT) was 1.085 and the “MFI CAL27_UPPER_AERODIGESTIVE_TRACT” value [2] was 20059.5 and 19151.5 and 25415 and 19627.5 and 22725.5. For the same compound, the Viability [2] was 1.031, the AUC (CAL29_URINARY_TRACT) was 1.177 and the “MFI CAL29_URINARY_TRACT” value [3] was 9011 and 8957 and 10277.5 and 8231.5 and 10904. The Viability [3] was 1.551, the AUC (CAL51_BREAST) was 1.0736 and the “MFI CAL51_BREAST” value (CAL51_BREAST, pert_dose 6.10E-04) was 12828 and 10989 and 10227 and 16366 and 8548.5. For the same compound, the AUC (CAL54_KIDNEY) was 1.148, the Viability (CAL54_KIDNEY, pert_dose 6.10E-04) was 1.061 and the AUC (CAL62_THYROID) was 1.139. For the same compound, the “MFI CAL62_THYROID” value (CAL62_THYROID, pert_dose 6.10E-04) was 19352 and 23281.5 and 23347 and 21690 and 18079, the AUC (CAL78_BONE) was 1.142 and the AUC (CAL120_BREAST) was 1.092. For the same compound, the “MFI CAL120_BREAST” value (CAL120_BREAST, pert_dose 6.10E-04) was 15064 and 12880 and 13041 and 15017 and 12012.5, the AUC (CALU1_LUNG) was 0.9872 and the AUC (CALU6_LUNG) was 1.11. The “MFI CALU6_LUNG” value (CALU6_LUNG, pert_dose 6.10E-04) was 19804 and 26726 and 21267 and 25781.5 and 28928.5, the AUC (CAMA1_BREAST) was 1.153 and the “MFI CAMA1_BREAST” value (CAMA1_BREAST, pert_dose 6.10E-04) was 1412 and 1959.5 and 1768 and 1670.5 and 1819.5. For the same compound, the AUC (CAOV3_OVARY) was 1.212, the “MFI CAOV3_OVARY” value (CAOV3_OVARY, pert_dose 6.10E-04) was 4238 and 2774 and 4113 and 2696.5 and 4069 and the AUC (CAPAN2_PANCREAS) was 1.279. The AUC (CCFSTTG1_CENTRAL_NERVOUS_SYSTEM) was 0.9997, the “MFI CCFSTTG1_CENTRAL_NERVOUS_SYSTEM” value (CCFSTTG1_CENTRAL_NERVOUS_SYSTEM, pert_dose 6.10E-04) was 2625 and 1957.5 and 2163 and 2860 and 1678.5 and the AUC (CFPAC1_PANCREAS) was 1.133. The “MFI CFPAC1_PANCREAS” value (CFPAC1_PANCREAS, pert_dose 6.10E-04) was 12988 and 12890.5 and 8831 and 16982.5 and 13585.5, the AUC (CHL1_SKIN) was 1.101 and the “MFI CHL1_SKIN” value (CHL1_SKIN, pert_dose 6.10E-04) was 25277 and 22527.5 and 16250 and 20018.5 and 22530. For the same compound, the AUC (CJM_SKIN) was 1.181, the “MFI CJM_SKIN” value (CJM_SKIN, pert_dose 6.10E-04) was 9757.5 and 5484 and 9139.5 and 7090.5 and 8423 and the AUC (CL34_LARGE_INTESTINE) was 1.025. The “MFI CL34_LARGE_INTESTINE” value (CL34_LARGE_INTESTINE, pert_dose 6.10E-04) was 3669 and 4269 and 5343.5 and 2751 and 2702, the AUC (COLO668_LUNG) was 1.1 and the AUC (COLO679_SKIN) was 0.88. For the same compound, the “MFI COLO679_SKIN” value (COLO679_SKIN, pert_dose 6.10E-04) was 6568.5 and 8262 and 8427 and 10413 and 7461, the AUC (COLO680N_OESOPHAGUS) was 1.159 and the “MFI COLO680N_OESOPHAGUS” value (COLO680N_OESOPHAGUS, pert_dose 6.10E-04) was 5933.5 and 4468 and 6131 and 5620 and 4657. The AUC (COLO741_SKIN) was 1.078, the “MFI COLO741_SKIN” value (COLO741_SKIN, pert_dose 6.10E-04) was 3302 and 2497 and 3485 and 3755 and 2923 and the AUC (COLO783_SKIN) was 1.125. For the same compound, the “MFI COLO783_SKIN” value (COLO783_SKIN, pert_dose 6.10E-04) was 9292.5 and 11134.5 and 11660 and 10125 and 10684, the AUC (COLO792_SKIN) was 0.8537 and the “MFI COLO792_SKIN” value (COLO792_SKIN, pert_dose 6.10E-04) was 5216 and 3883.5 and 6906 and 3698 and 6181. For the same compound, the AUC (COLO800_SKIN) was 0.9456, the “MFI COLO800_SKIN” value (COLO800_SKIN, pert_dose 6.10E-04) was 9562 and 9966.5 and 9539 and 8965 and 10824 and the AUC (CORL23_LUNG) was 1.082. For the same compound, the “MFI CORL23_LUNG” value (CORL23_LUNG, pert_dose 6.10E-04) was 18251 and 21912.5 and 23721 and 22738.5 and 19507.5, the AUC (CORL105_LUNG) was 0.9293 and the “MFI CORL105_LUNG” value (CORL105_LUNG, pert_dose 6.10E-04) was 3831.5 and 2259.5 and 3159 and 2363.5 and 2088.5. The AUC (COV362_OVARY) was 1.112, the “MFI COV362_OVARY” value (COV362_OVARY, pert_dose 6.10E-04) was 17061 and 16771 and 18006 and 14276 and 17716.5 and the AUC (COV434_OVARY) was 0.499. The “MFI COV434_OVARY” value (COV434_OVARY, pert_dose 6.10E-04) was 2287 and 4116 and 4254.5 and 3247 and 3013, the AUC (DANG_PANCREAS) was 1.183 and the “MFI DANG_PANCREAS” value (DANG_PANCREAS, pert_dose 6.10E-04) was 3936.5 and 2389 and 3329.5 and 4098 and 2374. For the same compound, the AUC (DAOY_CENTRAL_NERVOUS_SYSTEM) was 1.063, the “MFI DAOY_CENTRAL_NERVOUS_SYSTEM” value (DAOY_CENTRAL_NERVOUS_SYSTEM, pert_dose 6.10E-04) was 3341 and 3770 and 5391 and 3660 and 5169 and the AUC (DBTRG05MG_CENTRAL_NERVOUS_SYSTEM) was 0.8565. For the same compound, the “MFI DBTRG05MG_CENTRAL_NERVOUS_SYSTEM” value (DBTRG05MG_CENTRAL_NERVOUS_SYSTEM, pert_dose 6.10E-04) was 9502 and 12025.5 and 11037.5 and 11248 and 13043, the AUC (DETROIT562_UPPER_AERODIGESTIVE_TRACT) was 1.165 and the “MFI DETROIT562_UPPER_AERODIGESTIVE_TRACT” value (DETROIT562_UPPER_AERODIGESTIVE_TRACT, pert_dose 6.10E-04) was 11765 and 10497.5 and 16246.5 and 13989 and 13619. The AUC (DKMG_CENTRAL_NERVOUS_SYSTEM) was 0.8274, the AUC (DMS273_LUNG) was 1.073 and the “MFI DMS273_LUNG” value (DMS273_LUNG, pert_dose 6.10E-04) was 11114.5 and 10196.5 and 9771 and 10022 and 13797. For the same compound, the AUC (DU145_PROSTATE) was 1.079, the “MFI DU145_PROSTATE” value (DU145_PROSTATE, pert_dose 6.10E-04) was 21126.5 and 23687 and 17071 and 16938.5 and 18848 and the AUC (DV90_LUNG) was 0.8353. The “MFI DV90_LUNG” value (DV90_LUNG, pert_dose 6.10E-04) was 7893 and 6981 and 9620.5 and 7167 and 6096.5, the “∆ (AUC, TP53 mutation vs WT; decreased sensitivity)” value (DepMap TP53 mutation annotation) was 0.0919 and the AUC (EBC1_LUNG) was 1.0742. For the same compound, the “MFI EBC1_LUNG” value (EBC1_LUNG, pert_dose 6.10E-04) was 12931 and 11768 and 13134.5 and 11101.5 and 10612, the AUC (ECGI10_OESOPHAGUS) was 1.177 and the AUC (EFM192A_BREAST) was 1.203. The AUC (EFO21_OVARY) was 1.106, the “MFI EFO21_OVARY” value (EFO21_OVARY, pert_dose 6.10E-04) was 6907 and 7302 and 6854 and 7260 and 4429 and the AUC (EFO27_OVARY) was 1.1574. For the same compound, the “MFI EFO27_OVARY” value (EFO27_OVARY, pert_dose 6.10E-04) was 9100.5 and 10537 and 7873 and 14276 and 9706, the AUC (EN_ENDOMETRIUM) was 1.075 and the AUC (ES2_OVARY) was 1.089. The “MFI ES2_OVARY” value (ES2_OVARY, pert_dose 6.10E-04) was 18459 and 23432 and 12997.5 and 16216 and 13403, the AUC (ESS1_ENDOMETRIUM) was 1.129 and the “MFI ESS1_ENDOMETRIUM” value (ESS1_ENDOMETRIUM, pert_dose 6.10E-04) was 2916 and 2399 and 2841.5 and 2277 and 1505. For the same compound, the AUC (EWS502_BONE) was 1.109, the “MFI EWS502_BONE” value (EWS502_BONE, pert_dose 6.10E-04) was 3099 and 3510.5 and 2209 and 3124 and 3278.5 and the AUC (FADU_UPPER_AERODIGESTIVE_TRACT) was 1.169. For the same compound, the “MFI FADU_UPPER_AERODIGESTIVE_TRACT” value (FADU_UPPER_AERODIGESTIVE_TRACT, pert_dose 6.10E-04) was 3959.5 and 4203 and 5203 and 4740.5 and 7313 and the AUC (FTC133_THYROID) was 1.156.
